Measured values published in PubChem BioAssay (NCI).
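Step 1: Grow cells in 96-well plates. Step 2: Expose to compound for 48 hours at 5 concentrations. Step 3: Interpolate endpoints linearly; if unreached, use highest concentration. Definition used: TGI = concentration required for complete inhibition of growth.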

Key:
Test in all cases: growth of human tumour cells (NCI), 48 h
786-0 renal = system: 786-0 renal
A549 NSCLC = system: A549 NSCLC
T-47D breast = system: T-47D breast
HCT-116 colon = system: HCT-116 colon
CCRF-CEM leukemia = system: CCRF-CEM leukemia
MCF7 breast = system: MCF7 breast
SNB-75 CNS = system: SNB-75 CNS
MDA-MB-435 = system: MDA-MB-435
COLO 205 colon = system: COLO 205 colon
HOP-62 NSCLC = system: HOP-62 NSCLC
PC-3 prostate = system: PC-3 prostate
SK-MEL-28 melanoma = system: SK-MEL-28 melanoma
UACC-257 melanoma = system: UACC-257 melanoma
SNB-19 CNS = system: SNB-19 CNS
OVCAR-4 ovarian = system: OVCAR-4 ovarian
NCI-H23 lung = system: NCI-H23 lung
OVCAR-3 ovarian = system: OVCAR-3 ovarian
NCI-H522 lung = system: NCI-H522 lung
SK-MEL-5 melanoma = system: SK-MEL-5 melanoma
SK-MEL-2 melanoma = system: SK-MEL-2 melanoma
MDA-N = system: MDA-N
NCI-H460 lung = system: NCI-H460 lung
CAKI-1 renal = system: CAKI-1 renal
UACC-62 melanoma = system: UACC-62 melanoma
SW-620 colon = system: SW-620 colon
LOX IMVI melanoma = system: LOX IMVI melanoma
UO-31 renal = system: UO-31 renal
MDA-MB-231 breast = system: MDA-MB-231 breast
HCT-15 colon = system: HCT-15 colon
HL-60(TB) leukemia = system: HL-60(TB) leukemia
NCI/ADR-RES ovarian = system: NCI/ADR-RES ovarian
U251 CNS = system: U251 CNS
RPMI-8226 leukemia = system: RPMI-8226 leukemia
OVCAR-5 ovarian = system: OVCAR-5 ovarian
ACHN renal = system: ACHN renal
HS 578T breast = system: HS 578T breast
HT29 colon = system: HT29 colon
BT-549 breast = system: BT-549 breast
RXF 393 renal = system: RXF 393 renal
A498 renal = system: A498 renal
SR leukemia = system: SR leukemia
EKVX NSCLC = system: EKVX NSCLC
SF-268 CNS = system: SF-268 CNS
MOLT-4 leukemia = system: MOLT-4 leukemia
HCC-2998 colon = system: HCC-2998 colon
MALME-3M melanoma = system: MALME-3M melanoma
NCI-H226 lung = system: NCI-H226 lung
SF-295 CNS = system: SF-295 CNS
TK-10 renal = system: TK-10 renal
SK-OV-3 ovarian = system: SK-OV-3 ovarian
IGROV1 ovarian = system: IGROV1 ovarian
KM12 colon = system: KM12 colon
M14 melanoma = system: M14 melanoma
SF-539 CNS = system: SF-539 CNS
K-562 leukemia = system: K-562 leukemia
HOP-92 NSCLC = system: HOP-92 NSCLC
OVCAR-8 ovarian = system: OVCAR-8 ovarian
DU-145 prostate = system: DU-145 prostate

CN(NC(=O)c1ccc(Cl)cc1)C1=NCCCCN1
TGI (786-0 renal): > 100 µM | TGI (A549 NSCLC): > 100 µM | TGI (T-47D breast): > 100 µM | TGI (HCT-116 colon): > 100 µM | TGI (CCRF-CEM leukemia): > 100 µM | TGI (MCF7 breast): > 100 µM | TGI (SNB-75 CNS): > 100 µM | TGI (MDA-MB-435): > 100 µM | TGI (COLO 205 colon): > 100 µM | TGI (HOP-62 NSCLC): > 100 µM | TGI (PC-3 prostate): > 100 µM | TGI (SK-MEL-28 melanoma): > 100 µM | TGI (UACC-257 melanoma): > 100 µM | TGI (SNB-19 CNS): > 100 µM | TGI (OVCAR-4 ovarian): > 100 µM | TGI (NCI-H23 lung): > 100 µM | TGI (OVCAR-3 ovarian): > 100 µM | TGI (NCI-H522 lung): > 100 µM | TGI (SK-MEL-5 melanoma): > 100 µM | TGI (SK-MEL-2 melanoma): > 100 µM | TGI (MDA-N): > 100 µM | TGI (NCI-H460 lung): > 100 µM | TGI (CAKI-1 renal): > 100 µM | TGI (UACC-62 melanoma): > 100 µM | TGI (SW-620 colon): > 100 µM | TGI (LOX IMVI melanoma): > 100 µM | TGI (UO-31 renal): > 100 µM | TGI (MDA-MB-231 breast): > 100 µM | TGI (HCT-15 colon): > 100 µM | TGI (HL-60(TB) leukemia): > 100 µM | TGI (NCI/ADR-RES ovarian): > 100 µM | TGI (U251 CNS): > 100 µM | TGI (RPMI-8226 leukemia): > 100 µM | TGI (OVCAR-5 ovarian): > 100 µM | TGI (ACHN renal): > 100 µM | TGI (HS 578T breast): > 100 µM | TGI (HT29 colon): > 100 µM | TGI (BT-549 breast): > 100 µM | TGI (RXF 393 renal): > 100 µM | TGI (A498 renal): > 100 µM | TGI (SR leukemia): > 100 µM | TGI (EKVX NSCLC): > 100 µM | TGI (SF-268 CNS): > 100 µM | TGI (MOLT-4 leukemia): > 100 µM | TGI (HCC-2998 colon): > 100 µM | TGI (MALME-3M melanoma): > 100 µM | TGI (NCI-H226 lung): > 100 µM | TGI (SF-295 CNS): > 100 µM | TGI (TK-10 renal): > 100 µM | TGI (SK-OV-3 ovarian): > 100 µM | TGI (IGROV1 ovarian): > 100 µM | TGI (KM12 colon): > 100 µM | TGI (M14 melanoma): > 100 µM | TGI (SF-539 CNS): > 100 µM | TGI (K-562 leukemia): > 100 µM | TGI (HOP-92 NSCLC): > 100 µM | TGI (OVCAR-8 ovarian): > 100 µM

CN1CCN(Cn2nc(-c3ccccc3)n(/N=C/c3ccc(-c4ccc(Cl)cc4Cl)o3)c2=S)CC1
TGI (786-0 renal): 33.9 µM | TGI (T-47D breast): 45.1 µM | TGI (HCT-116 colon): 14.8 µM | TGI (CCRF-CEM leukemia): 23.2 µM | TGI (MCF7 breast): 38.6 µM | TGI (MDA-MB-435): 46.1 µM | TGI (HOP-62 NSCLC): 30.5 µM | TGI (PC-3 prostate): 22 µM | TGI (SK-MEL-28 melanoma): 77.8 µM | TGI (UACC-257 melanoma): 47.5 µM | TGI (OVCAR-4 ovarian): 54.8 µM | TGI (NCI-H23 lung): 40.7 µM | TGI (OVCAR-3 ovarian): 28.5 µM | TGI (NCI-H522 lung): > 100 µM | TGI (SK-MEL-5 melanoma): 68.9 µM | TGI (SK-MEL-2 melanoma): 44.1 µM | TGI (MDA-N): > 100 µM | TGI (NCI-H460 lung): > 100 µM | TGI (CAKI-1 renal): 21.9 µM | TGI (SW-620 colon): 32.9 µM | TGI (LOX IMVI melanoma): 46.7 µM | TGI (UO-31 renal): 29 µM | TGI (MDA-MB-231 breast): 29.9 µM | TGI (HCT-15 colon): 21.2 µM | TGI (HL-60(TB) leukemia): 80.3 µM | TGI (NCI/ADR-RES ovarian): 56.2 µM | TGI (U251 CNS): 17.5 µM | TGI (DU-145 prostate): 21 µM | TGI (RPMI-8226 leukemia): 75.6 µM | TGI (OVCAR-5 ovarian): 48 µM | TGI (HS 578T breast): > 100 µM | TGI (HT29 colon): 36.3 µM | TGI (RXF 393 renal): 14 µM | TGI (A498 renal): 58.1 µM | TGI (SR leukemia): 5.04 µM | TGI (EKVX NSCLC): > 100 µM | TGI (SF-268 CNS): 26.2 µM | TGI (MOLT-4 leukemia): 5.15 µM | TGI (HCC-2998 colon): 26.5 µM | TGI (NCI-H226 lung): 53.2 µM | TGI (SF-295 CNS): 29.9 µM | TGI (TK-10 renal): 29.7 µM | TGI (SK-OV-3 ovarian): 27.3 µM | TGI (IGROV1 ovarian): 31.8 µM | TGI (KM12 colon): 41.3 µM | TGI (M14 melanoma): 39.1 µM | TGI (SF-539 CNS): 41 µM | TGI (K-562 leukemia): 24.7 µM | TGI (HOP-92 NSCLC): 25.1 µM | TGI (OVCAR-8 ovarian): 25.8 µM
